Experimental data as given in patent US8026368B2, “Hydrazide compounds and thrombopoietin receptor activators” (Nissan Chemical Industries, Ltd., priority 2005, dated 2011).

biological target: T1, human thrombopoietin receptor (c-mpl) (Homo sapiens, UniProt P40238); experiment: Stimulation of proliferation of thrombopoietin-dependent cell line UT7/EPO-mpl (WST-8); format: cell-based; settings: human leukemic cell line UT-7/EPO-mpl, 4 days incubation, WST-8, relative to 10 ng/mL TPO; read-out: EC50 (concentration that yields a growth rate corresponding to 50% of the growth observed in the presence of 10 ng/mL TPO) (converted)
T1 construct: expressed in transfected cells
T1 sequence (P40238 26-635): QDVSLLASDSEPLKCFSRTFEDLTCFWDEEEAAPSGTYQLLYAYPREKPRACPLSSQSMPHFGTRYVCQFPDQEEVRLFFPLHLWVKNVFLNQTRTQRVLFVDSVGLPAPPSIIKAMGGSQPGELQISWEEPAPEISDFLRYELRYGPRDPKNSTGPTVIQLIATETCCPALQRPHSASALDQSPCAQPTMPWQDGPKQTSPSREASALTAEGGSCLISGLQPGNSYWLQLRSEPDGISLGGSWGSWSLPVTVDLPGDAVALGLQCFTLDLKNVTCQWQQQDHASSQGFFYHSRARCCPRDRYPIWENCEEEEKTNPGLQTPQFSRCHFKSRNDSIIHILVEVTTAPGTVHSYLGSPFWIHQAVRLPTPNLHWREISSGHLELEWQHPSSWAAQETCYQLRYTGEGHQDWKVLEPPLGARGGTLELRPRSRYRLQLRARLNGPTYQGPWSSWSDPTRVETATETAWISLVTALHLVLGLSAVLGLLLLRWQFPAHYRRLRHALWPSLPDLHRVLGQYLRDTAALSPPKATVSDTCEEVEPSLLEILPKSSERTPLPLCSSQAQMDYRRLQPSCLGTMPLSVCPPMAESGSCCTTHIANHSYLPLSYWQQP
Procedure: The responses of thrombopoietin receptor to the compounds of the present invention prepared in the Synthetic Examples were assayed using a human leukemic cell line, UT7/EPO-mpl.
UT7/EPO-mpl is a stable transformed cell line obtained by introducing into human leukemic cell line UT7/EPO a vector that induces expression of human thrombopoietin receptor (c-mpl) under control of cytomegalovirus immediate-early promoter by the method of Takatoku et al. (J. Biol. Chem., 272:7259-7263 (1997)). […] These two cell lines were subcultured in IMDM (GIBCO) containing 10% fetal bovine serum (Thermo Electron or BioWest) using a CO2 incubator (5% CO2, 37° C.).
The subcultured cells described above were washed twice with PBS and suspended in IMDM containing 10% fetal bovine serum at a cell density of 6×10^4 cells/ml. The cell suspension was transferred to a 96-well tissue culture plate (CORNING) in 100-μl aliquots. Then either thrombopoietin (Pepro Tech EC) or the compounds of the Synthetic Examples dissolved in dimethyl sulfoxide were diluted 83-fold with IMDM containing 10% fetal bovine serum and added to the aforementioned cell suspension in 20-μl aliquots. The cell suspension was incubated in a CO2 incubator (5% CO2, 37° C.) for 4 days. Cell proliferation was assayed using WST-8 reagent (Kishida Chemical Co., Ltd.) according to instructions by the manufacturer. A 10-μl aliquot of 5 mM WST-8 reagent solution was added to each well of the tissue culture plate, and the plate was incubated at 37° C. for 4 hours. The formazan pigment generated was detected by measuring the absorbance at 450 nm with a 96-well microplate reader (Nihon Molecular Devices, Spectramax 190).
The concentration of each compound that yields a growth rate corresponding to 50% of the growth of human leukemic cell line UT-7/EPO-mpl observed in the presence of 10 ng/mL TPO (EC50) in the test on the compounds of the Synthetic Examples in Assay Example 1 are shown in Table 16.

Compound | EC50 [nM]
CC1=NN(c2ccc(C)c(C)c2)C(=O)/C1=C(/C)NNC(=O)c1ccc(C(=O)NCc2ccncc2)s1 [Example 2] | 1.63
CC1=NN(c2ccc(C(C)(C)C)cc2)C(=O)/C1=C(/C)NNC(=O)c1ccc(C(=O)N2CC(O)C(O)C2)s1 (stereo not shown) [Example 13] | 1.01
CC1=NN(c2ccc(C(C)(C)C)cc2)C(=O)/C1=C(/C)NNC(=O)c1ccc(C(=O)NCC(=O)O)s1 [Example 23] | 6.23
CC1=NN(c2ccc(C)c(C)c2)C(=O)/C1=C(/C)NNC(=O)c1ccc(C(=O)NCc2cccnc2)s1 [Example 8] | 0.676
CC1=NN(c2ccc(C(C)(C)C)cc2)C(=O)/C1=C(/C)NNC(=O)c1ccc(C(=O)NCc2cccnc2)s1 [Example 20] | 0.528
CC1=NN(c2ccc(C(C)(C)C)cc2)C(=O)/C1=C(/C)NNC(=O)c1ccc(C(=O)NC(C)C)s1 [Example 11] | 1.16
CC1=NN(c2ccc(C(C)(C)C)cc2)C(=O)/C1=C(/C)NNC(=O)c1ccc(C(=O)N2CCCC2)s1 [Example 15] | 5.27
CC1=NN(c2ccc(C(C)(C)C)cc2)C(=O)/C1=C(/C)NNC(=O)c1ccc(C(=O)NCCC(=O)O)s1 [Example 24] | 5.86
CNC(=O)c1ccc(C(=O)NN/C(C)=C2\C(=O)N(c3ccc(C)c(C)c3)N=C2C)s1 [Example 10] | 5.17
CNC(=O)c1ccc(C(=O)NN/C(C)=C2\C(=O)N(c3ccc(C(C)(C)C)cc3)N=C2C)s1 [Example 25] | 0.661
CC1=NN(c2ccc(C(C)(C)C)cc2)C(=O)/C1=C(/C)NNC(=O)c1ccc(C(=O)NCc2ccccn2)s1 [Example 19] | 2.64
COCCNC(=O)c1ccc(C(=O)NN/C(C)=C2\C(=O)N(c3ccc(C(C)(C)C)cc3)N=C2C)s1 [Example 26] | 1.23
CC1=NN(c2ccc(C)c(C)c2)C(=O)/C1=C(/C)NNC(=O)c1ccc(C(=O)NCc2ccccn2)s1 [Example 7] | 3.58
CC1=NN(c2ccc(C)c(C)c2)C(=O)/C1=C(/C)NNC(=O)c1ccc(C(=O)NCCC(=O)O)s1 [Example 9] | 8.89
CC1=NN(c2ccc(C(C)(C)C)cc2)C(=O)/C1=C(/C)NNC(=O)c1ccc(C(=O)NN2CCOCC2)s1 [Example 21] | 1.2
CC1=NN(c2ccc(C(C)(C)C)cc2)C(=O)/C1=C(/C)NNC(=O)c1ccc(C(=O)N2CCC(N3CCCC3)CC2)s1 [Example 17] | 3.99
CC1=NN(c2ccc(C)c(C)c2)C(=O)/C1=C(/C)NNC(=O)c1ccc(C(=O)N2CCCC2)s1 [Example 4] | 7.52
COC1CN(C(=O)c2ccc(C(=O)NN/C(C)=C3\C(=O)N(c4ccc(C(C)(C)C)cc4)N=C3C)s2)CC1OC (stereo not shown) [Example 22] | 5.78
CCN(CC)C(=O)c1ccc(C(=O)NN/C(C)=C2\C(=O)N(c3ccc(C(C)(C)C)cc3)N=C2C)s1 [Example 14] | 11.7
CC1=NN(c2ccc(C)c(C)c2)C(=O)/C1=C(/C)NNC(=O)c1ccc(C(=O)N2CC(O)C(O)C2)s1 (stereo not shown) [Example 3] | 5.63
CC1=NN(c2ccc(C(C)(C)C)cc2)C(=O)/C1=C(/C)NNC(=O)c1ccc(C(=O)N2CCC(N(C)C)C2)s1 (stereo not shown) [Example 18] | 5.03
CC1=NN(c2ccc(C)c(C)c2)C(=O)/C1=C(/C)NNC(=O)c1ccc(C(=O)NN(C)C)s1 [Example 5] | 6.16
CC1=NN(c2ccc(C(C)(C)C)cc2)C(=O)/C1=C(/C)NNC(=O)c1ccc(C(=O)NN(C)C)s1 [Example 16] | 3.94
CC1=NN(c2ccc(C(C)(C)C)cc2)C(=O)/C1=C(/C)NNC(=O)c1ccc(C(=O)NCc2ccncc2)s1 [Example 12] | 0.528

The remaining lines, values ahead:

EC50 [nM] | Compound
5.02 | CC1=NN(c2ccc(C(F)(F)F)cc2)C(=O)/C1=C(/C)NNC(=O)c1ccc(C(=O)N2CC(O)C(O)C2)s1 (stereo not shown) [Example 30]
1.6 | CCCNC(=O)c1ccc(C(=O)NN/C(C)=C2\C(=O)N(c3ccc(C(C)(C)C)cc3)N=C2C)s1 [Example 27]
4.97 | CC1=NN(c2ccc(Cl)c(Cl)c2)C(=O)/C1=C(/C)NNC(=O)c1ccc(C(=O)NCc2ccncc2)s1 [Example 38]
1.59 | CC1=NN(c2ccc(C(F)(F)F)cc2)C(=O)/C1=C(/C)NNC(=O)c1ccc(C(=O)NCc2ccncc2)s1 [Example 29]
11.3 | COC1CN(C(=O)c2ccc(C(=O)NN/C(C)=C3\C(=O)N(c4ccc(Cl)c(Cl)c4)N=C3C)s2)CC1OC (stereo not shown) [Example 44]
6.93 | CC1=NN(c2ccc(C(F)(F)F)cc2)C(=O)/C1=C(/C)NNC(=O)c1ccc(C(=O)N2CCC(N(C)C)C2)s1 (stereo not shown) [Example 35]
5.65 | CC1=NN(c2ccc(Cl)c(Cl)c2)C(=O)/C1=C(/C)NNC(=O)c1ccc(C(=O)NN(C)C)s1 [Example 40]
4.25 | CC1=NN(c2ccc(C(F)(F)F)cc2)C(=O)/C1=C(/C)NNC(=O)c1ccc(C(=O)N2CCC(N3CCCC3)CC2)s1 [Example 34]
6.53 | CC1=NN(c2ccc(C(F)(F)F)cc2)C(=O)C1=C(C)NNC(=O)c1ccc(C(=O)N2CCCC2)s1 [Example 32]
4.45 | CC1=NN(c2ccc(C(F)(F)F)cc2)C(=O)/C1=C(/C)NNC(=O)c1ccc(C(=O)NN(C)C)s1 [Example 33]
0.871 | CC1=NN(c2ccc(C(F)(F)F)cc2)C(=O)/C1=C(/C)NNC(=O)c1ccc(C(=O)NC(C)C)s1 [Example 28]
4.6 | CC1=NN(c2ccc(Cl)c(Cl)c2)C(=O)/C1=C(/C)NNC(=O)c1ccc(C(=O)NCc2cccnc2)s1 [Example 43]
4.75 | CC1=NN(c2ccc(Cl)c(Cl)c2)C(=O)/C1=C(/C)NNC(=O)c1ccc(C(=O)N2CCC(N3CCCC3)CC2)s1 [Example 41]
8.28 | CCN(CC)C(=O)c1ccc(C(=O)NN/C(C)=C2\C(=O)N(c3ccc(C(F)(F)F)cc3)N=C2C)s1 [Example 31]
5.34 | CC1=NN(c2ccc(Cl)c(Cl)c2)C(=O)/C1=C(/C)NNC(=O)c1ccc(C(=O)NCc2ccccn2)s1 [Example 42]
3.9 | CC1=NN(c2ccc(Cl)c(Cl)c2)C(=O)/C1=C(/C)NNC(=O)c1ccc(C(=O)N2CC(O)C(O)C2)s1 (stereo not shown) [Example 39]
5.46 | CC1=NN(c2ccc(Cl)c(Cl)c2)C(=O)/C1=C(/C)NNC(=O)c1ccc(C(=O)NC(C)C)s1 [Example 37]

biological target: T1, human thrombopoietin receptor (c-mpl); experiment: not given; settings: cell line characterisation, Takatoku et al.; cited from earlier work

Compound | Proliferation of UT7/EPO-mpl cell line in response to TPO
TPO: Thrombopoietin (Pepro Tech EC), a cytokine consisting of 332 amino acids; reference stimulus at 10 ng/mL | stimulated

test system: UT7/EPO; experiment: not given; settings: cell line characterisation, Takatoku et al.; cited from earlier work

Compound | Response of mother cell line UT7/EPO to TPO
TPO: Thrombopoietin (Pepro Tech EC), a cytokine consisting of 332 amino acids; reference stimulus at 10 ng/mL | no response
